Assay: in vitro
Conditions: human, hela cells

Structure (SMILES) | viability at 28.5 h, 10 µM (% viability) [%] | viability at 28.5 h, 10 µM [%]
CS(=O)(=O)c1ccc(-n2cc(CN3CCC(Sc4ccccc4)CC3)nn2)cc1 [CBK149468] | 101 | 
CC(C)(C)OC(=O)N1CCC(OCc2cn(-c3ccc(-n4cncn4)cc3)nn2)CC1 [CBK149477] | 87.1 | 
CC(C)(C)OC(=O)N1CCC(OCc2cn(-c3ccc(S(C)(=O)=O)cc3)nn2)CC1 [CBK149478] | 98.1 | 
CC(=O)Nc1ccc(-c2cccc(COC3CCN(C(=O)Cc4cc(F)cc(F)c4F)CC3)c2)cc1 [CBK149489] | 89.2 | 
CC(=O)Nc1ccc(-c2cccc(COC3CCN(C(=O)Cc4ccc(C#N)cc4)CC3)c2)cc1 [CBK149495] | 101 | 
CS(=O)(=O)c1ccc(-c2cccc(COC3CCN(C(=O)Cc4ccc(Cl)cc4)CC3)c2)cc1 [CBK149504] | 110 | 
CS(=O)(=O)c1ccc(-c2cccc(COC3CCN(C(=O)Cc4c[nH]cn4)CC3)c2)cc1 [CBK149515] | 90.9 | 
CN1CCN(CCCNC(=O)C2(c3ccccc3)CCCC2)CC1 [CBK149521] | 106 | 
O=C(NCC1COc2ccccc2O1)C1(c2ccccc2)CCCC1 (centres unmarked) [CBK149524] | 93.8 | 
CSCCCNC(=O)C1(c2ccccc2)CCCC1 [CBK149526] | 109 | 
O=C(NCc1ccc(Cl)c(Cl)c1)C1(c2ccccc2)CCCC1 [CBK149528] | 92.8 | 
O=C(NCc1ccc2c(c1)OCO2)C1(c2ccccc2)CCCC1 [CBK149530] | 89.8 | 
Cc1cnc(CNC(=O)C2(c3ccccc3)CCCC2)cn1 [CBK149531] | 101 | 
O=C(NCc1cccc2ccccc12)C1(c2ccccc2)CCCC1 [CBK149534] | 96.6 | 
O=C(NCCc1ccc(O)cc1)C1(c2ccccc2)CCCC1 [CBK149535] | 84.9 | 
O=C(NCCN1CCOCC1)C1(c2ccccc2)CCCC1 [CBK149538] | 95.2 | 
O=C(NCc1ccccc1)C1(c2ccccc2)CCCC1 [CBK149540] | 111 | 
CC(O)CNC(=O)C1(c2ccccc2)CCCC1 (centres unmarked) [CBK149542] | 96 | 
CCOC(=O)CCNC(=O)C1(c2ccccc2)CCCC1 [CBK149543] | 88.2 | 
Cc1cc(Cl)ccc1CNC(=O)c1ccccc1Nc1cccc(C(F)(F)F)c1 [CBK149544] | 97.3 | 
CSCCCNC(=O)c1ccccc1Nc1cccc(C(F)(F)F)c1 [CBK149551] | 71.3 | 
NS(=O)(=O)c1ccc(CNC(=O)c2ccccc2Nc2cccc(C(F)(F)F)c2)cc1 [CBK149579] | 94.4 | 
O=C(Nc1ccc2[nH]ccc2c1)c1ccccc1Nc1cccc(C(F)(F)F)c1 [CBK149583] | 105 | 

Structure (SMILES) | viability at 28.5 h, 10 µM (% viability) [%] | viability at 28.5 h, 10 µM [%]
O=C(NCc1cccs1)c1ccccc1-n1cccc1 [CBK149584] | 92 | 
O=C(NCc1cccc2ccccc12)c1ccccc1-n1cccc1 [CBK149585] | 99.8 | 
O=C(NCc1cccc(C(F)(F)F)c1)c1ccccc1-n1cccc1 [CBK149598] | 100 | 
CS(=O)(=O)c1ccc(CNC(=O)c2ccccc2-n2cccc2)cc1 [CBK149612] | 94.2 | 
Cc1cc(Cl)ccc1CNC(=O)/C=C/c1ccc(C(C)C)cc1 [CBK149615] | 85.2 | 
CC(C)c1ccc(/C=C/C(=O)NCC2COc3ccccc3O2)cc1 (centres unmarked) [CBK149619] | 120 | 
CC(C)c1ccc(/C=C/C(=O)NCCN2CCOCC2)cc1 [CBK149631] | 92.6 | 
CC(C)c1ccc(/C=C/C(=O)NCc2ccc(C#N)cc2)cc1 [CBK149642] | 91 | 
CC(C)c1ccc(/C=C/C(=O)N[C@H]2CC[C@H](O)CC2)cc1 [CBK149644] | 106 | 
CC(C)c1ccc(/C=C/C(=O)NCCC(N)=O)cc1 [CBK149646] | 81.9 | 
CC(C)S(=O)(=O)N1CCC(n2c(=O)[nH]c3ccccc32)CC1 [CBK149693] | 101 | 
CC(=O)Nc1ccc(S(=O)(=O)N2CCC(n3c(=O)[nH]c4ccccc43)CC2)cc1 [CBK149696] | 92.3 | 
Cc1cc(C(=O)N2CCC(n3c(=O)[nH]c4ccccc43)CC2)no1 [CBK149714] | 103 | 
CCc1c(C)nc2ccccc2c1SCCC(=O)N(C)C [CBK149718T] | 99.9 | 
CC1CCN(Cc2ccc(-c3nnn(CC(=O)NCc4ccc(C(F)(F)F)nc4)n3)cc2)CC1 [CBK149721T] | 112 | 
CC1CCN(Cc2ccc(-c3nnn(CC(=O)NCc4ccc(C(F)(F)F)cn4)n3)cc2)CC1 [CBK149722T] | 104 | 
CNc1ccc2cccc(OCCO)c2n1 [CBK149727] | 95.6 | 
O=c1ccc2cccc(OCCO)c2o1 [CBK149730] | 105 | 
CN(C)C(=O)c1ccc(-c2ccc3c(c2)COC(C2CCN(C(=O)Cc4ccc(C#N)cc4)CC2)O3)cc1 (centres unmarked) [CBK149760] | 107 | 
CN(C)C(=O)c1ccc(-c2ccc3c(c2)COC(C2CCN(C(=O)CC(C)(C)c4ccccc4)CC2)O3)cc1 (centres unmarked) [CBK149765] | 107 | 
COc1cccc2cc(C(=O)NCC3COc4ccccc4O3)oc12 (centres unmarked) [CBK149791] | 109 | 
COc1cccc2cc(C(=O)NCCCSC)oc12 [CBK149793] | 99.6 | 
COc1cccc2cc(C(=O)NCc3cccs3)oc12 [CBK149799] | 67.9 | 

Structure (SMILES) | viability at 28.5 h, 10 µM (% viability) [%] | viability at 28.5 h, 10 µM [%]
COc1cccc2cc(C(=O)NCc3cccc4ccccc34)oc12 [CBK149800] | 78.6 | 
COc1cccc2cc(C(=O)NC3CC3)oc12 [CBK149813] | 97.8 | 
CCOC(=O)CCNC(=O)c1cc2cccc(OC)c2o1 [CBK149816] | 88.1 | 
COc1cccc2cc(C(=O)Nc3ccc4[nH]ccc4c3)oc12 [CBK149819] | 91.5 | 
COc1ccc(OCCNC(=O)C2(c3ccc(OC)cc3)CC2)cc1 [CBK149821] | 91.8 | 
COc1ccc(C2(C(=O)NCCCN3CCN(C)CC3)CC2)cc1 [CBK149822] | 101 | 
COc1ccc(C2(C(=O)NCc3ccc(OC(F)(F)F)cc3)CC2)cc1 [CBK149823] | 117 | 
COc1ccc(C2(C(=O)NCc3ccc(Cl)c(Cl)c3)CC2)cc1 [CBK149827] | 98.7 | 
COc1ccc(C2(C(=O)NCc3cccs3)CC2)cc1 [CBK149831] | 106 | 
COc1ccc(C2(C(=O)NCCc3ccc(O)cc3)CC2)cc1 [CBK149833] | 101 | 
O=C(Nc1ccc(C(F)(F)F)cc1)N1CCC(n2c(=O)[nH]c3ccccc32)CC1 [CBK149847] | 83.1 | 
O=C(Nc1ccc(Cl)cc1)N1CCC(n2c(=O)[nH]c3ccccc32)CC1 [CBK149850] | 98.5 | 
COc1cc(OC)c(NC(=O)N2CCC(n3c(=O)[nH]c4ccccc43)CC2)cc1Cl [CBK149851] | 91.4 | 
O=C(Nc1cccc(Cl)c1Cl)N1CCC(n2c(=O)[nH]c3ccccc32)CC1 [CBK149856] | 94.6 | 
CCOC(=O)N1CCC(n2c(=O)[nH]c3ccccc32)CC1 [CBK149867] | 79.6 | 
COc1ccc(OC(=O)N2CCC(n3c(=O)[nH]c4ccccc43)CC2)cc1 [CBK149868] | 102 | 
CC(=O)NCc1cccc(-c2cc(C(=O)Nc3ccc4c(c3)OCCO4)cnc2O)c1 [CBK149871T] | 91.6 | 
c1ccc(CC(Cc2nc3ccccc3[nH]2)c2nc3ccccc3[nH]2)cc1 (centres unmarked) [CBK150452] | 107 | 
O=c1nc(-c2ccccc2Cl)oc2ccccc12 [CBK152263] | 89.9 | 
O=c1nc(-c2ccco2)oc2ccccc12 [CBK152421] | 112 | 
Cc1cccc2c(=O)nc(-c3ccccc3Cl)oc12 [CBK152422] | 106 | 
O=C(Nc1sc2c(c1C(=O)O)CCC2)c1cccs1 [CBK152437] | 95.2 | 
COc1cccc(-c2ccc3c(c2)[nH]c(=O)n3C2CCN(C(=O)c3ccc(C)c(OC)c3)CC2)c1 [CBK153141] | 102 | 

Structure (SMILES) | viability at 28.5 h, 10 µM (% viability) [%] | viability at 28.5 h, 10 µM [%]
Cc1ccc(CNC(=O)Cn2nnc(-c3ccc(CNCC(F)(F)F)cc3)n2)cc1 [CBK153204T] | 116 | 
O=C(NCCc1ccccc1)c1ccc(N2CCN(C(=O)c3ccccc3C(F)(F)F)CC2)nn1 [CBK153212] |  | 83.2
O=C(NCC1CC1)c1ccc(N2CCN(C(=O)c3ccccc3C(F)(F)F)CC2)nn1 [CBK153220] | 111 | 
O=C1NC(=O)C(CC(=O)N2CCC3(CCCNC3)C2)N1 (centres unmarked) [CBK153232C] | 79.2 | 
O=C(c1cncnc1)N1CCC2(CCCNC2)C1 (centres unmarked) [CBK153237C] | 89.7 | 
COC(=O)CCC(=O)Nc1snnc1-c1ccc(Cl)cc1 [CBK153241] | 99.3 | 
O=C(CC1CCCCC1)Nc1snnc1-c1ccc(Cl)cc1 [CBK153245] | 114 | 
O=C(Nc1snnc1-c1ccc(Cl)cc1)c1ccc(OC(F)(F)F)cc1 [CBK153247] | 70.5 | 
O=C(OCc1ccccc1)N1CCC(C2OCc3cc(-c4ccc(C(=O)N5CCCC5)cc4)ccc3O2)CC1 (centres unmarked) [CBK153260] | 108 | 
O=C(OCc1ccccc1)N1CCC(C2OCc3cc(-c4ccc(C(=O)N5CCCCC5)cc4)ccc3O2)CC1 (centres unmarked) [CBK153262] | 93.8 | 
O=S(=O)(c1ccccc1)N1Cc2cccc3[nH]cc(c23)C1 [CBK153275] | 102 | 
CC1(C)CC(=O)C=C(C(=O)NCc2c(F)cccc2F)O1 [CBK153287] | 91.2 | 
CSCCCNC(=O)c1ccc2nc[nH]c2c1 [CBK153314] | 116 | 
O=C(NCc1c(F)cccc1F)c1ccc2nc[nH]c2c1 [CBK153315] | 83 | 
O=C(NCc1cccs1)c1ccc2nc[nH]c2c1 [CBK153320] | 92.1 | 
Cc1csc(C(C)NC(=O)c2cccnc2NCc2ccc3c(c2)OCO3)n1 (centres unmarked) [CBK153425] | 108 | 
O=C(NCc1ccc([N+](=O)[O-])cc1)c1cccnc1NCc1ccc2c(c1)OCO2 [CBK153436] | 98.6 | 
CCOC(=O)CCCCSc1c(CC)c(C)nc2ccccc12 [CBK153458T] | 96 | 
CCc1c(C)nc2ccccc2c1SC[C@H](NC(C)=O)C(=O)O [CBK153459T] | 99.2 | 
Cc1ccc(S(=O)(=O)Nc2ccc3[nH]ccc3c2)cc1 [CBK153519] | 92.5 | 
